Assay results reported in PMC13566268, “Everolimus-Involving Immunosuppression Attenuates Renal Interstitial Fibrosis Through Modulation of Mammalian Target of Rapamycin-Related Signal Transduction” (International Journal of Molecular Sciences, 2026).

Assay: Pharmacokinetic assessment of immunosuppressants (blood/plasma trough and AUC)
Format: in vivo, human
Settings: Non-EVR group, plasma, mean ± SD
Experimental: Sampling was performed at both 1-month and 1-year posttransplantation. The area under the blood (plasma) concentration–time curve (AUC) was then calculated from these serial measurements.

COc1c(C)c2c(c(O)c1C/C=C(\C)CCC(=O)O)C(=O)OC2 [MPA, mycophenolic acid]
MPA AUC0–12 (at 1-month posttransplantation): 53500 ± 21000 ng·h/mL | MPA AUC0–12 (at 1-year posttransplantation): 51500 ± 20000 ng·h/mL
